Results published in ChEMBL document CHEMBL1201862, “PubChem BioAssay data set” (2004).
The source made the active and inactive calls.

Assays:
[1] = P. falciparum 3D7-ScDHODH growth inhibitors, dose response, SYBR Green, dry powder samples (AID 1159570); assay type: functional, cell-based;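 further: parasite growth measured after 72 hours of compound exposure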
[2] = HepG2 cell cytotoxicity, dose response, cytotoxicity control, plate reader, dry powder samples (AID 1159569); assay type: functional, cell-based;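 further: inhibitor potency with signal falling toward the positive control level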
[3] = P. falciparum Dd2 growth inhibitors, dose response, SYBR Green, cherry-picked samples (AID 1159567); assay type: functional, cell-based
[4] = P. falciparum Dd2 growth inhibitors, dose response, SYBR Green, dry powder samples (AID 1159566); assay type: functional, cell-based;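 further: potency for growth inhibition with lower SYBR green DNA signal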
[5] = HepG2 cell cytotoxicity, dose response, cytotoxicity control, cherry-picked samples (AID 1159577); assay type: functional, cell-based
[6] = P. falciparum ATP4 D1247Y mutant growth inhibitors, dose response, NITD609-resistant line, SYBR Green, dry powder (AID 1159571); assay type: functional, cell-based;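 further: parasites synchronized at ring stage by sorbitol before testing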
[7] = Concentration-dependent survival of SW480 colon cancer line, luminescence detection with CellTiter-Glo, half-maximal inhibitory concentration (AID 1117338); assay type: functional
[8] = RKO cell viability reduction, dose response, CellTiter-Glo luminescence (AID 1117322); assay type: functional
[9] = cytotoxicity toward HCT116 cells – cell-based, CellTiter-Glo luminescence, IC50, dose response (AID 1117332); assay type: functional; conditions: HCT-116
[10] = SNU-C1 cell viability reduction, dose response, CellTiter-Glo luminescence (AID 1117323); assay type: functional, cell-based
[11] = cytotoxicity toward Colo320 cells – cell-based, CellTiter-Glo luminescence, IC50, dose response (AID 1117334); assay type: functional; conditions: COLO 320
[12] = cytotoxicity toward HT-29 cells – cell-based, CellTiter-Glo luminescence, IC50, dose response (AID 1117330); assay type: functional
[13] = CellTiter-Glo luminescent dose response of DLD-1 viability loss (AID 1117352); assay type: functional
[14] = HCT116 cell viability decrease, GSK3B pretreatment – CellTiter-Glo, IC50, dose response (AID 1117339); assay type: functional; conditions: HCT-116
[15] = half-maximal inhibitory concentration for glucagon-like peptide-1 release, STC-1 cell line, dose-response (AID 1117345); assay type: functional, cell-based
[16] = Glucagon-like peptide 1 release potency, NCI-H716 cell line, dose-response, half-maximal inhibitory concentration (AID 1117344); assay type: functional, cell-based
[17] = target: Mitogen-activated protein kinase 10 (Homo sapiens, UniProt P53779); experiment: Dose response biochemical screening assay for inhibitors of c-Jun N-Terminal Kinase 3 (JNK3). [Related pubchem assays: 746 ]
Chain of Mitogen-activated protein kinase 10 (P53779 whole entry): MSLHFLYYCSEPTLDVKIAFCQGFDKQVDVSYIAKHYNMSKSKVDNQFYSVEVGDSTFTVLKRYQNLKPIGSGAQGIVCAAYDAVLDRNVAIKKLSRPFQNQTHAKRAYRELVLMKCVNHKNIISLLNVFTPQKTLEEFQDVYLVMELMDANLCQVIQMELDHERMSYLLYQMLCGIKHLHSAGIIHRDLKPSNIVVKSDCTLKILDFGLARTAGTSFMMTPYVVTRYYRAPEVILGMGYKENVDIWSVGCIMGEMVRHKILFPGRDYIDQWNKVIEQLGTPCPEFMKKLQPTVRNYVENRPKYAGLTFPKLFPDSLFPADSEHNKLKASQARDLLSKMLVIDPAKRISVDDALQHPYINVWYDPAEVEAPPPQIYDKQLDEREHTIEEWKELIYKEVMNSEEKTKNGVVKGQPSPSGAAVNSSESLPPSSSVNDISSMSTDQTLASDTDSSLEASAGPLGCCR

[18] = P. falciparum Dd2 growth inhibitors, dose response, SYBR Green, dry powder samples, set 9 (AID 1159568); assay type: functional, cell-based
[19] = A549 cell cytotoxicity, dose response, cytotoxicity control, plate reader, cherry-pick, antagonist series (AID 743412); assay type: functional, cell-based
[20] = HepG2 cell cytotoxicity, dose response, cytotoxicity control, plate reader, cherry-pick, antagonist series (AID 743416); assay type: functional, cell-based
[21] = LGR2 antagonists, dose response, cell-based, HEK293, CRE-luciferase reporter, cherry pick, set 2 (AID 743343); assay type: functional;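 further: transfected cells were stimulated with diluted bursicon conditioned medium after compound addition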

C[C@@H]1CN([C@H](C)CO)S(=O)(=O)c2ccc(C#Cc3ccncc3)cc2O[C@H]1CN(C)S(=O)(=O)c1ccc(F)cc1
AC50 [1]: 0.682 µM (active)
AC50 [2]: 3.66 µM (active)
AC50 [3]: 2.17 µM (active)
AC50 [4]: 1.14 µM (active)
AC50 [5]: > 39 µM (inactive)
AC50 [6]: 1.17 µM (active)

CN1CCN(c2cc3c(nn2)Oc2ccccc2N3C)CC1 [PIPOFEZINE]
IC50 [7]: > 20 µM (inactive)
IC50 [8]: > 20 µM (inactive)
IC50 [9]: > 20 µM (inactive)
IC50 [10]: > 20 µM (inactive)
IC50 [11]: > 20 µM (inactive)
IC50 [12]: > 20 µM (inactive)
IC50 [13]: > 20 µM (inactive)
IC50 [14]: > 20 µM (inactive)

C#CC1(O)CC[C@H]2[C@@H]3CCC4=CCCC[C@@H]4[C@H]3CC[C@@]21C (some centres undefined)
IC50 [15]: > 40 µM (inactive)
IC50 [16]: 27.5 µM (inactive)

COc1ccc(CNC(=O)c2cnn3c(C(F)F)cc(C)nc23)cc1OC
IC50 [17]: > 31 µM (not active)

Cc1ccc(S(=O)(=O)N(C)C[C@H]2Oc3cc(C#CC4CCCC4)ccc3S(=O)(=O)N([C@@H](C)CO)C[C@H]2C)cc1
AC50 [18]: 3.42 µM (active)

Clc1ccc(C(Cn2ccnc2)OCc2ccc(Sc3ccccc3)cc2)c(Cl)c1 (centres undefined) [FENTICONAZOLE]
IC50 [7]: 7.44 µM (inactive)
IC50 [8]: 6.14 µM (inactive)
IC50 [9]: 7.71 µM (inactive)
IC50 [11]: 7.06 µM (inactive)
IC50 [12]: > 20 µM (inactive)
IC50 [13]: 7.76 µM (inactive)
IC50 [14]: 6.77 µM (inactive)

O=C(C[C@@H]1C[C@H]2c3cc(NC(=O)c4ccc5c(c4)OCO5)ccc3O[C@H]2[C@@H](CO)O1)NCc1ccc(Oc2ccccc2)cc1
AC50 [19]: 35.3 µM (active)
AC50 [20]: 20.5 µM (active)
AC50 [21]: 32.7 µM (active)
AC50 [18]: > 39 µM (inactive)

C[C@@H]1CN([C@@H](C)CO)C(=O)c2ccccc2-c2ccccc2CO[C@H]1CN(C)C(=O)Nc1cccc(Cl)c1Cl
AC50 [1]: 0.0978 µM (active)
AC50 [2]: > 100 µM (inactive)
AC50 [3]: 0.418 µM (active)
AC50 [4]: 0.107 µM (active)
AC50 [6]: 0.437 µM (active)
